Laboratory results from patent US20260063641A1, “COMPOSITIONS AND METHODS FOR LABELING AND DETECTING BINDING PARTNERS” (UNIVERSITY OF UTAH RESEARCH FOUNDATION, priority 2022, published 2026).
Entries after “also recorded” stand apart in the source; their conditions may differ.

Key:
Assay type in all cases: cell-based
[1] = target: T1, NLuc-FKBP12F36V (Homo sapiens, UniProt P62942, F37V); experiment: FKBP12F36V cellular target engagement assay (competition with dTAG-13, NLuc/FLuc signal); settings: for competitive displacement of dTAG-13 (FKBP12F36V cellular target engagement): mean±S.D. of n=3 technical replicates, FIG. 4D-F
T1 construct: expressed in transfected cells
T1 sequence (P62942 2-108 F37V limits assumed): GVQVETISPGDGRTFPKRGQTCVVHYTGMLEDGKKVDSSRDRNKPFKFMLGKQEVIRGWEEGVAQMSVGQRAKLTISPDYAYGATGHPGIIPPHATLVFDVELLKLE
Text: This method, named the biotin targeting chimera (BioTAC) system, uses bifunctional molecules composed of a compound-of-interest linked to selective FKBP12F36V recruiter orthoAP1867, to recruit a ligandable proximity labeling enzyme (mTurbo-FKBP12F36V) to compound-bound complexes enabling their biotinylation and subsequent affinity purification (FIG. TA-B). To benchmark the BioTAC system for accurate detection of the direct targets of ligands the well-characterized BET protein inhibitor (+)-JQ1, which potently binds BRD2, BRD3 and BRD4 (as well as the testes-specific BET protein BRDT), was selected as a test case. A series of bifunctional molecules consisting of (+)-JQ1 conjugated to […] were synthesized via a variable linker (FIG. 1B, FIG. 4A-C). (+)-JQ1-bifunctional molecule cell permeability was measured using an FKBP12F36V cellular target engagement assay adapted from Nabet et. al Nat Commun 11, 4687 (2020). Briefly, FKBP12F36V binding molecules compete with an FKBP12F36V targeting PROTAC (dTAG-13), for NLuc-FKBP12F36V occupancy, rescuing degradation and resulting in an increase in NLuc/FLuc (control) signal relative to DMSO-treated cells. All synthesized compounds were comparably cell permeable (FIG. 4D-E).

[2] = target: T2, MEK1 (Homo sapiens, UniProt Q02750); experiment: BioTAC proximity labeling, streptavidin enrichment and immunoblot for MEK1; settings: HEK293 with miniTurbo-FKBP12F36V, 100 μM biotin, dose and time point optimization
T2 construct: Immunoblot analysis of MEK1/2 enrichment following treatment of HEK293 cells; host or cells: HEK293 transiently transfected with the BioTAC plasmid
T2 sequence (Q02750 whole entry): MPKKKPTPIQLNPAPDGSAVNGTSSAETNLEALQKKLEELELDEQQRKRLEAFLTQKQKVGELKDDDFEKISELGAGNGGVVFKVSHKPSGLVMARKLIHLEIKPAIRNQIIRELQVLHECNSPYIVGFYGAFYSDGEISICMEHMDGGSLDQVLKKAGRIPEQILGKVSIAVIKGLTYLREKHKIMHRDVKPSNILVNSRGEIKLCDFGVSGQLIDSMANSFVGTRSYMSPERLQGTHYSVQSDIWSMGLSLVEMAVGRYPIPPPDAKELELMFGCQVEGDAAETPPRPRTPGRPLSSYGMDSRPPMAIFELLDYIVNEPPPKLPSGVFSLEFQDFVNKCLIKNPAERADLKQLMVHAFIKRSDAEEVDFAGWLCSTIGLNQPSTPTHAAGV
T2 sequence (as listed by the source partner): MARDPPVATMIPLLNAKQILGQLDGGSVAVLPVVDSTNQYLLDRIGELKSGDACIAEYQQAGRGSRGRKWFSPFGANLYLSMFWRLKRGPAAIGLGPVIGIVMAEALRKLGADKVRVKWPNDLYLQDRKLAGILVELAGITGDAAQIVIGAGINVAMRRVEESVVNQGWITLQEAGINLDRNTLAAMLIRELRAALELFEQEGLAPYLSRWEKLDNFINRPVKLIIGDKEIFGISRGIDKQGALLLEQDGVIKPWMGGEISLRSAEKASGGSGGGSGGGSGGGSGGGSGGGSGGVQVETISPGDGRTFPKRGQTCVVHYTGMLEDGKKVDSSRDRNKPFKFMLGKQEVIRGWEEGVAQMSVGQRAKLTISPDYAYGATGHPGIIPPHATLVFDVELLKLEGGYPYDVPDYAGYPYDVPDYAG
Protocol: (§1) Bifunctional trametinib analogue JWJ-01-280/Cpd2 was synthesized, with a linker attachment informed by a reported trametinib-derived BRET probe named Tram-bo (FIG. 3B). […] The ability of the BioTAC system to detect both known interactors of trametinib was evaluated by Western blot, as described above.
(§2) 0.6 million HEK293 cells were plated into wells containing 1 mL of complete media (DMEM, 10% FBS, 1% pen/strep) and incubated overnight. Cells were transiently transfected with 100 μL of OptiMEM media containing 1 μg of BioTAC plasmid and 3 μL of TransIT-2020 transfection reagent (Mirus, MIR5400) for 24 hr. Following a media change, cells were pre-treated with parental molecules or DMSO for 10 min, then treated with bifunctional compound for 10 min, and finally labeled in 100 μM biotin for the indicated time. Cells were washed twice with DPBS then harvested into 1.5 mL tubes. […] Protein concentration was determined by BCA assay (Thermo, 23225), then 100 ug protein was rotated overnight at 4° C. with 8 μL of streptavidin magnetic beads (Thermo, 88817) that had been prewashed twice in RIPA lysis buffer. […]

[3] = target: T3, MEK1:trametinib:KSR1 complex (Homo sapiens, UniProt Q02750); experiment: BioTAC detection of molecular glue complex by immunoblot of MEK1 and KSR1; settings: 4 hr treatment with 1 μM, 100 μM biotin
T3 construct: Immunoblot analysis of MEK1 and KSR1 following treatment of HEK293 cells; host or cells: HEK293 transiently transfected with the BioTAC plasmid
T3 sequence (Q02750 whole entry, one chain of several): as the sequence (Q02750 whole entry) above
Protocol: as §1, §2

[4] = target: T4, BRD4 (Homo sapiens, UniProt O60885); experiment: BioTAC proximity labeling, streptavidin pulldown and western blot for BRD4; settings: variable concentrations of free (+)-JQ1 against 1 μM bifunctional (+)-JQ1 recruiters, all timepoints
T4 construct: host or cells: HEK293 transiently transfected with the BioTAC plasmid
Protocol: Next bifunctional molecule guided-proximity labeling experiments were performed using validated reagents. HEK293 cells transiently transfected with mTurbo-FKBP12F36V were treated with 100 μM biotin, 1 μM bifunctional (+)-JQ1 recruiters, and variable concentrations of free (+)-JQ1 to off-compete the bifunctional molecule and rescue biotinylation. Biotinylated proteins were isolated from cell lysates via streptavidin bead pulldown and analyzed by western blot for BRD4, a primary target of (+)-JQ1.
as §2

CC[C@H](C(=O)N1CCCC[C@H]1C(=O)O[C@H](CCc1ccc(OC)c(OC)c1)c1ccccc1OCC(=O)NCCOCCOCCC(=O)Nc1cccc(-n2c(=O)n(C3CC3)c(=O)c3c(Nc4ccc(I)cc4F)n(C)c(=O)c(C)c32)c1)c1cc(OC)c(OC)c(OC)c1 [Cpd2, (R)-1-(2-(2-((2-(2-(3-((3-(3-Cyclopropyl-5-((2-fluoro-4-iodophenyl)amino)-6,8-dimethyl-2,4,7-trioxo-3,4,6,7-tetrahydropyrido[4,3-d]pyrimidin-1(2H)-yl)phenyl)amino)-3-oxopropoxy)ethoxy)ethyl)amino)-2-oxoethoxy)phenyl)-3-(3,4-dimethoxyphenyl)propyl (S)-1-((S)-2-(3,4,5-trimethoxyphenyl)butanoyl)piperidine-2-carboxylate]
cell permeability measured by FKBP12F36V cellular target engagement assay ([1]; rescue of NLuc-FKBP12F36V degradation by dTAG-13, relative to DMSO): less cell permeable than the (+)-JQ1 derivatives
MEK1 labelling (immunoblot) [2]: efficient MEK1 labelling
detection/enrichment of MEK1:trametinib:KSR1 complex (immunoblot of MEK1 and KSR1) [3]: detected; also recorded: successful enrichment and competition with trametinib

CC[C@H](C(=O)N1CCCC[C@H]1C(=O)O[C@H](CCc1ccc(OC)c(OC)c1)c1ccccc1OCC(=O)NCCOCCOCCNC(=O)C[C@@H]1N=C(c2ccc(Cl)cc2)c2c(sc(C)c2C)-n2c(C)nnc21)c1cc(OC)c(OC)c(OC)c1 [JWJ-01-236, (R)-1-(2-((14-((S)-4-(4-Chlorophenyl)-2,3,9-trimethyl-6H-thieno[3,2-f][1,2,4]triazolo[4,3-a][1,4]diazepin-6-yl)-2,13-dioxo-6,9-dioxa-3,12-diazatetradecyl)oxy)phenyl)-3-(3,4-dimethoxyphenyl)propyl (S)-1-((S)-2-(3,4,5-trimethoxyphenyl)butanoyl)piperidine-2-carboxylate]
competitive displacement of dTAG-13 (FKBP12F36V cellular target engagement) [1]: competitive displacement of dTAG-13

CC[C@H](C(=O)N1CCCC[C@H]1C(=O)O[C@H](CCc1ccc(OC)c(OC)c1)c1ccccc1OCC(=O)NCCCCCCCCNC(=O)C[C@@H]1N=C(c2ccc(Cl)cc2)c2c(sc(C)c2C)-n2c(C)nnc21)c1cc(OC)c(OC)c(OC)c1 [JWJ-01-255, (R)-1-(2-(2-((8-(2-((S)-4-(4-Chlorophenyl)-2,3,9-trimethyl-6H-thieno[3,2-f][1,2,4]triazolo[4,3-a][1,4]diazepin-6-yl)acetamido)octyl)amino)-2-oxoethoxy)phenyl)-3-(3,4-dimethoxyphenyl)propyl (S)-1-((S)-2-(3,4,5-trimethoxyphenyl)butanoyl)piperidine-2-carboxylate]
competitive displacement of dTAG-13 (FKBP12F36V cellular target engagement) [1]: competitive displacement of dTAG-13

(+)-JQ1 [reference compound]
BRD4 pulldown in presence of free competitor [4]: dose dependent decrease in BRD4 pulldown
